Laboratory results reported in paper PMC3925085, “Subditine, a New Monoterpenoid Indole Alkaloid from Bark of Nauclea subdita (Korth.) Steud. Induces Apoptosis in Human Prostate Cancer Cells” (PLoS ONE, 2014).

Experiments:
[1] = tested on: PC-3 human prostate cancer cells; assay: MTT cell proliferation assay, PC-3; format: cell-based
Method: Human prostate normal cell line (RWPE-1) and human prostate cancer cell lines; LNCaP and PC-3, were purchased from the American Type Culture Collection (ATCC, Manassas, Virginia, USA). LNCaP and PC-3 cells were grown in Roswell Park Memorial Institute medium (RPMI) supplemented with 10% heat-inactivated fetal bovine serum (FBS, Sigma-Aldrich, St. Louis, MO), 1% penicillin and streptomycin. RWPE-1 cells were maintained in Keratinocyte Serum Free Medium (K-SFM, ATCC) supplemented with bovine pituitary extract (BPE) and human recombinant epidermal growth factor (EGF). Mediums were supplemented with 10% heat-inactivated fetal calf serum (Sigma.), 100 U/ml penicillin and […] streptomycin (Flowlab, Sydney, Australia). All cells were maintained in a humidified atmosphere of 5% CO2 in air at 37°C incubator.
The anti-proliferative activity was evaluated by performing MTT assays as previously described with minor modifications. Briefly, cells were seeded 24 hours prior to treatment in a 96-well plate at 5×10^4 cells/well in order to obtain 70% to 80% confluent cultures. The compounds were dissolved in DMSO (Sigma Chemical Co., St. Louis, Missouri, USA) followed by a 2×serial dilution for 10 points ranged from 0.825 µM to 100 µM. The 96-well plate was incubated for 24 hours at 37°C in a humidified atmosphere with 5% CO2. At the end of incubation, 50 µl of MTT solution (2 mg/ml; Sigma) was added to each well. The plate was then incubated for 4 hours. All medium was removed and the purple formazan crystal formed at the bottom of the wells was dissolved with 200 µl DMSO for 20 minutes. The absorbance at 570 nm was read on a spectrophotometric plate reader (Hidex). The proportion of surviving cells was calculated as: […]
Dose-response curves were constructed to obtain the IC50 values. Experimental data were derived from 3 independent experiments. The selectivity index was obtained by mean IC50 RWPE-1/mean IC50 of LNCaP or PC-3.

[2] = tested on: caspase-3/7 in LNCaP cells; assay: Caspase-Glo 3/7 bioluminescent assay, LNCaP; format: cell-based, human
Method: (§1) A time-dependent study of caspase-3/7, -8, and -9 activities was performed in triplicates using assay kits Caspase-Glo 3/7, 8, and 9 (Promega Corp.,Madison,WI, USA) on white 96-well microplate as described previously. A total of 10,000 cells per well was seeded and treated with […] of subditine (1) for 6, 12, 18, 24, and 30 hours. Then, 100 µL of the caspase-Glo reagent was added, incubated at room temperature for 30 minutes and measured using Tecan Infinite 200 Pro (Tecan, Mannedorf, Swizerland) microplate reader.

caspase-9 in PC-3 cells = assay: Caspase-Glo 9 bioluminescent assay, PC-3; format: cell-based, human
Method: as §1

[3] = tested on: intracellular ROS in LNCaP cells; assay: ROS assay (DHE dye, Cellomics HCS), LNCaP; format: cell-based, human; conditions: LNCaP, 12.5, 25, 50 µM, 24 h
Method: (§2) The production of intracellular ROS was detected as described previously. The DHE dye reagent is converted to fluorescent ethidium and intercalates into DNA in response intracellular ROS. Briefly, 10 mM DHE stock solution (in methanol) was diluted 500-fold in HBSS without serum or other additives to yield a 20 µM working solution. After exposure to subditine (1), the cells in the 96-well black plate was washed twice with HBSS and then incubated in 100 µL working solution of DHE at 37°C for 30 minutes. Fluorescence of DCF in each cell was captured, extracted and analyzed with ArrayScan II Data Acquisition and Data Viewer version 3.0 (Cellomics).

[4] = tested on: intracellular ROS in PC-3 cells; assay: ROS assay (DHE dye, Cellomics HCS), PC-3; format: cell-based, human; conditions: PC-3, 12.5, 25, 50 µM, 24 h
Method: as §2

LNCaP cells = assay: Cellomics multiparameter cytotoxicity assay, LNCaP; format: cell-based, human
Method: (§3) Cytotoxicity 3 kit (Thermo Scientific) was used as described previously. Briefly, 24 hours after subditine (1) treatment, MMP dye and the cell permeability dye were added to live cells and incubated for 30 minutes at 37°C. Cells were fixed, permeabilized, blocked with 1x blocking buffer before probing with primary cytochrome c and secondary DyLight 649 conjugated goat anti-mouse IgG antibodies for 1 hour each. Hoechst 33342 was added into the staining solution. Plates were then analyzed using the ArrayScan high content screening (HCS) system (Cellomics, PA, USA). Data were captured, extracted and analyzed with ArrayScan II Data Acquisition and Data Viewer version 3.0.

PC-3 cells = assay: Cellomics multiparameter cytotoxicity assay, PC-3; format: cell-based, human
Method: as §3

[5] = tested on: p53 expression in PC-3 cells; assay: Western blotting, p53 in PC-3; format: cell-based, human; conditions: PC-3 (p53-null), 24 h
Method: (§4) To determine protein expression, 1×10^6 cells/mL were seeded and treated with subditine (1) or paclitaxel for 24 h. Whole cell extracts were prepared as previously described. Briefly, cells were collected, lysed and resolved on 10% SDS-polyacrylamide gels. After electrophoresis, the proteins were transferred to PVDF membranes (Millipore), blocked with 5% nonfat dry milk in PBS-T (0.05% Tween 20) for 1 hour at room temperature. Membranes were probed with primary rabbit anti-Bcl-2, Bcl-xL or p53 antibodies followed by horseradish peroxidase (HRP)-conjugated secondary anti-rabbit antibody (Cell Signaling Technology Inc., CA, USA). Membranes were stripped and reprobed with mouse anti-β-actin antibody as loading control (Santa Cruz Biotechnology Inc.). Protein-antibody complexes were detected with Amersham ECL prime Western blotting detection reagent (GE Healthcare, USA).

[6] = tested on: Bcl-2 expression in LNCaP cells; assay: Western blotting, Bcl-2 in LNCaP; format: cell-based, human; conditions: 24 h
Method: as §4

[7] = PC-3, 24 h, compared to control

IC50 ([1]; Homo sapiens, MTT, 24 hours, PC-3, mean ± S.D.): 14 ± 0.32 µM
SMILES: Cc1ncc2c(=O)n3c(cc2c1C=O)-c1[nH]c2ccccc2c1CC3 [Subditine, subditine]
folds more potent against PC-3 than normal prostate cells RWPE-1 ([1]; PC-3 vs RWPE-1): 2.2 folds
selectivity index (SI) PC-3 ([1]; mean IC50 RWPE-1/mean IC50 of PC-3): 2.18
caspase-3/7 activity ([2]; after 12 and 24 hours exposure, 12.25 µM): significant increase
time of peak caspase-3/7 activity ([2]; time points 6-30 hours): 18 h
caspase-9 activity (caspase-9 in PC-3 cells; PC-3, after 12 and 24 hours exposure, 12.25 µM): significant increase
time of highest caspase-9 activity (caspase-9 in PC-3 cells; PC-3, time points 6-30 hours): 24 h
ROS production (DCF/DHE fluorescence level) [3]: significantly increased in a dose-dependent manner
ROS production (DCF/DHE fluorescence level) [4]: significantly increased in a dose-dependent manner
cytochrome c release (cytosolic staining) (LNCaP cells; 24 h, compared to control): increased fluorescent-staining in the cytosol
membrane permeability (LNCaP cells; 24 h, compared to control): higher membrane permeability
mitochondrial membrane potential (MMP) fluorescence intensity (LNCaP cells; 24 hours): dose-dependent reduction
cytochrome c release (cytosolic staining) (PC-3 cells; [7]): increased fluorescent-staining in the cytosol
membrane permeability (PC-3 cells; [7]): higher membrane permeability
mitochondrial membrane potential (MMP) fluorescence intensity (PC-3 cells; PC-3, 24 hours): dose-dependent reduction
p53 expression [5]: did not restore or enhance
Bcl-2 expression [6]: down-regulation
